Measured values as given in US20240261297A1, “ANTI-CDK INHIBITORS FOR CANCER TREATMENT” (St. John's Cancer Institute, priority 2021, published 2024).
Read-outs that look alike come from different tables or passages of the source.

Assays:
CDK5/p35 = CDK5/p35 (Homo sapiens, UniProt Q00535); assay: Radioisotope-based protein kinase assay; assay type: biochemical; details: Table 2
Method: (§1) A series of test compounds were selected for initial screening against CDK isoforms. Protein kinase assays were performed with gold standard radioisotope-based assay formats to measuring enzyme activity remaining in presence and absence of inhibitor.
The activity of compound I-3 was compared to that of a panel of CDKs and their respective binding partners (Tables 2 and 3).

CKD9/Cyclin H = CKD9/Cyclin H (Homo sapiens, UniProt P50750); assay: Biochemical profile against CDKs and binding partners (Table 3)
CKD9/Cyclin H, sequence (P50750 whole entry): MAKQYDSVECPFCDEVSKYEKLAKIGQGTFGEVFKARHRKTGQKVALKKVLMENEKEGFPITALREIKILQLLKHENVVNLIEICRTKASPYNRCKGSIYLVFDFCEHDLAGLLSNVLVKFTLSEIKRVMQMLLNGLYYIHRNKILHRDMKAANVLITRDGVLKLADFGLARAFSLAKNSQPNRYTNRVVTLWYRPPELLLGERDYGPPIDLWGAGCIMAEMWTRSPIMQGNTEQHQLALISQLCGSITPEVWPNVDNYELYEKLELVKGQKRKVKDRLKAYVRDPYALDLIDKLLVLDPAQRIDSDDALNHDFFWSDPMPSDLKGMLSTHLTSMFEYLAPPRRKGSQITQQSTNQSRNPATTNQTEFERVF
Method: as §1

CDK2/Cyclin E1 = target: T1, CDK2/Cyclin E1 (Homo sapiens, UniProt P24941); assay: NanoBRET target engagement intracellular kinase assay in HEK293 cells; assay type: cell-based; details: transfected HEK293 cells; 10-dose, 3-fold from 10 μM, duplicate
T1 construct: expressed in transfected cells; host or cells: HEK293
Method: (§2) Compound 1-3 efficacy was assessed in several in vitro assays. A nanoBrET assay was used to measure intracellular kinase activity of I-3 with CDK2, CDK1, CDK7 and CDK9. Briefly, HEK293 cells were transfected with CDK2, CDK1, CDK7 and CDK9. The transfected cells were treated in duplicate with test compound I-3 (starting at 10 μM, 10-dose with 3-fold dilution) and target engagement was measured by NanoBRET assay (FIG. 2A and Table 4). Cellular thermal shift assay (CETSA) was also performed to evaluate drug target interaction in the cells. The CETSA method is built upon two concepts: cellular thermal shift and isothermal dose-response. The cellular thermal shift assay is based on the established fact that proteins that are complexed to a ligand become more resistant to heat induced unfolding. Isothermal dose response is used to determine a compound's potency in binding the target by measuring the thermal stability of the target treated with various concentrations of compound at a fixed temperature. Briefly, cell lysate was treated with I-3 (starting at 300 nM, 10-dose with 3-fold dilution) and incubated for 1 hour and cell lysates were then subjected to predetermined thermal aggregation temperature (58° C.) for another 20 min. Western blot was performed to determine the levels of target protein bound to I-3 (FIG. 2B).

CDK7/cyclin H = CDK7/cyclin H (Homo sapiens, UniProt P50613); assay: as above; assay type: cell-based; details: transfected HEK293 cells; 10-dose, 3-fold from 10 μM, duplicate
CDK7/cyclin H, sequence (P50613 whole entry): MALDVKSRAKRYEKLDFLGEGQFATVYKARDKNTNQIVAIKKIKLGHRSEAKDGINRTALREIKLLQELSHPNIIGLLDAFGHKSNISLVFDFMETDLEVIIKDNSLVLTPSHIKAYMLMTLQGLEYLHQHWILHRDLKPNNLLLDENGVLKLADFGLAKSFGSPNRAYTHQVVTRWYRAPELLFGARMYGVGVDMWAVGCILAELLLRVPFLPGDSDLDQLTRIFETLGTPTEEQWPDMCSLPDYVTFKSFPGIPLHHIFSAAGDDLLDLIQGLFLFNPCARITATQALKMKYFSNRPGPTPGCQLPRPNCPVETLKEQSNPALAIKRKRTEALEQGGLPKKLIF
CDK7/cyclin H, sequence (P51946 whole entry partner): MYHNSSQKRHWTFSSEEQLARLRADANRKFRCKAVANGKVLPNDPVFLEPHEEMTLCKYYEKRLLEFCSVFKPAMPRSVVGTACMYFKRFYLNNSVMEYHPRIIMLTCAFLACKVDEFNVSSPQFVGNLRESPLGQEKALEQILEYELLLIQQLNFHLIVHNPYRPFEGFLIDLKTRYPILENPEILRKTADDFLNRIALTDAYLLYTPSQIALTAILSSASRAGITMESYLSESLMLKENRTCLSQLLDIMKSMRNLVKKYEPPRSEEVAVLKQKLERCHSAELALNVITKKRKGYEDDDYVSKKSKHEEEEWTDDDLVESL
CDK7/cyclin H, sequence (P51948 whole entry partner): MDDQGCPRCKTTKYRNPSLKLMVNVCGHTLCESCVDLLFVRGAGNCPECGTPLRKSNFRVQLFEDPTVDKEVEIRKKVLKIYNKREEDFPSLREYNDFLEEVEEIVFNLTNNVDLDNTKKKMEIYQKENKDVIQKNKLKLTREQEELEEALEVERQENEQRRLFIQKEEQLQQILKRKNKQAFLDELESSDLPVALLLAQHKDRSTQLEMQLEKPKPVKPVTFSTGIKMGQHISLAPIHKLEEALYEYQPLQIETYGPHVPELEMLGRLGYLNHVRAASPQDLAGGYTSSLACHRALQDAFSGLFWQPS
Method: as §2

[1] = test system: pCDK2 and phospho-RB in MDA-MB-468 cells; assay: Western blot of pCDK2 and phospho-Rb in MDA-MB-468 cells; assay type: cell-based; details: increasing amounts
Method: FIGS. 3A-3B show target protein inhibition in Basal like TNBC cells. FIG. 3A is a Western blot showing pCDK2 levels in MDA-MB-468 cells with increasing dose of I-3 (CD11). FIG. 3B is a Western blot showing Phospho-Rb levels in MDA-MB-468 cells with increasing dose of I-3 (CD11).
as §2, with “Briefly, cell lysate was treated with I-3 (starting at 300 nM, 10-dose with 3-fold dilution) and incubated for 1 hour and cell lysates were then subjected to predetermined thermal aggregation temperature (58° C.) for another 20 min. Western blot was performed to determine the levels of target protein bound to I-3 (FIG. 2B).” left out

MDA-MB-468 = assay: Cell viability in breast cancer cell lines; assay type: cell-based; details: Homo sapiens
Text: (§3) Tables 5 and 6 show assessment of in vitro efficacy of I-3 in a panel of breast cancer cell lines.

T47D = assay: Cell viability in breast cancer cell lines; assay type: cell-based; details: Homo sapiens; T47D (Ductal carcinoma), 72 hours; read-out: CTG and Alamar Blue Assay IC50
Text: as §3

MCF-10A = assay: Cell viability in breast cell lines; assay type: cell-based; details: Homo sapiens, 72 hours
Text: as §3

[2] = test system: caspase 3/7 in MDA-MB-468 cells; assay: Caspase Glo 3/7 activity assay in MDA-MB-468 cells; assay type: cell-based; details: 24 hours
Method: Further anti-proliferative effect of 1-3 was evaluated in the TNBC cell line MDA-MB-468 based on biomarker (CDK2) inhibition. […] The mechanistic cell cycle block is aligned with biomarker. In addition, Caspase Glo 3/7 activation was tested to confirm the sub-G1 (apoptotic) arrest in cell cycle.

PLC/PRF/5 cells = assay: Cell viability of HCC cells by CellTiter Glo assay; assay type: cell-based; details: Homo sapiens, 72 hours
Method: FIG. 5 is a graph showing cell viability of hepatocellular carcinoma (HCC) cell lines treated with I-3 for 72 hours, assessed by CellTiter Glo assay, with the control level of cells considered 100%.
I-3 was also tested for efficacy on hepatocellular carcinoma (HCC) cell lines. Cell viability was measured by CellTiter Glo assay (FIG. 5 and Table 8).

[3] = test system: caspase 3/7 in PLC/PRF/5 cells; assay: Caspase Glo 3/7 activity assay in PLC/PRF/5 cells; assay type: cell-based
[4] = Snapshot plasma pharmacokinetics in mice; assay type: in vivo; details: mouse, in vivo; for AUC(0-inf): AUCinf
Method: Evaluation of pharmacokinetic (PK) parameters and efficacy of I-3 in a xenograft model was carried out in mice. […] Briefly, mice were treated with 5 mg/kg of 1-3 or merioline-3. Plasma was then collected at different time points and measured for drug concentration. […] PK parameters of I-3 was also compared to a panel of CDK inhibitors (Table 13). […] Likewise, Ribociclib has a better Cmax than I-3, but it is primarily a CDK4/6 inhibitor.

[5] = test system: MDA-MB-231 breast cancer xenograft; assay: Anti-tumor efficacy in MDA-MB-231 breast cancer xenograft model; assay type: in vivo, mice; details: p<0.0001
Method: Anti-tumor efficacy of I-3 was evaluated in a MDA-MB-231 breast cancer xenograft model. Briefly, mice with MDA-MB-231 tumors were randomized to three treatment groups: control (Vehicle, n=8), 1-3 IV (10 mg/kg, n=8) and 1-3 PO (10 mg/kg, n=8) on a schedule of 14 days for daily (PO) or twice weekly (IV). Oral gavage treatments were formulated in 0.1% Tween 80 and 99.9% of 0.5% (w/v) of methyl cellulose in water. Intravenous treatments were formulated in 5% (v/v) DMSO, 2.5% (v/v) absolute ethanol, 2.5% (v/v) Solutol, and 90% Normal saline. Tumor growth was measured twice weekly by using a digital vernier caliper and high resolution images of tumor bearing mice were captured using a digital camera at weekly intervals of the study (Days 0, 7 and 14). Tumor volume was calculated as follows:
Tumor Volume=[Length(L)×Width(W)^2]/2
where length (L) is the largest diameter of the tumor and width (W) is the smallest diameter of the tumor.

CDK5/p35, sequence (Q00535 whole entry, canonical isoform): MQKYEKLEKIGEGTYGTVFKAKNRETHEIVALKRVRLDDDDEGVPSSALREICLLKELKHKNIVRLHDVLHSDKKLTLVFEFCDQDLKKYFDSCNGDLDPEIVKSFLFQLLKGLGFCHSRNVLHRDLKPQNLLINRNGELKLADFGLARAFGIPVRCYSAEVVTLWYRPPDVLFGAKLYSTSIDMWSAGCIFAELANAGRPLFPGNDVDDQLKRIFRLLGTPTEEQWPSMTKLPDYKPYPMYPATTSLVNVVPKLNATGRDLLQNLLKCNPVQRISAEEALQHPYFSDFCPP
CDK5/p35, sequence (Q15078 whole entry partner, canonical isoform): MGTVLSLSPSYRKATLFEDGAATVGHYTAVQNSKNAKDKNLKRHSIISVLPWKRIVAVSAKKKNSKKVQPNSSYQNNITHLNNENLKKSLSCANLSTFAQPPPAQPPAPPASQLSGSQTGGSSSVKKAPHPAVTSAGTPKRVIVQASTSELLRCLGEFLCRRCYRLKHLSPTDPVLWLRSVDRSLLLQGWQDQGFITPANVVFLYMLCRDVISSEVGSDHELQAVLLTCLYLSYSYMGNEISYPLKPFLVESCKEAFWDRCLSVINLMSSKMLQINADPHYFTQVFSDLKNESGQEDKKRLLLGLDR

Nc1nccc(-c2c[nH]c3nccc(Oc4cccc(F)c4)c23)n1 [I-3, 4-(4-(3-fluorophenoxy)-1H-pyrrolo[2,3-b]pyridin-3-yl)pyrimidin-2-amine]
IC50 (CDK5/p35): 8 nM | IC50 (CKD9/Cyclin H): 7 nM | IC50 (CDK2/Cyclin E1): 22 nM | IC50 (CDK7/cyclin H): 403 nM | pCDK2 levels [1]: reduced | phosphor-RB levels [1]: reduced | IC50 (MDA-MB-468; MDA-MB-468 (Basal-like 1), 72 hours, read-out: CTG and Alamar Blue Assay IC50): 276 nM | IC50 (MDA-MB-468; MDA-MB-468, 72 hours, Table 6, read-out: Cell viability by CellTiter Glo IC50): 276 nM | IC50 (T47D): 55500 nM | IC50 (MCF-10A; MCF-10A (Normal breast-like), read-out: CTG and Alamar Blue Assay IC50): 2070 nM | IC50 (MCF-10A; MCF-10A, Table 6, read-out: Cell viability by CellTiter Glo IC50): 2070 nM | Caspase 3/7 activation [2]: clear activation of caspase 3/7 | IC50 ([2]; Homo sapiens): 652 nM | IC50 (PLC/PRF/5 cells): 1520 nM | Caspase 3/7 activation (comparison) [3]: greater activation of caspase 3/7 by 1-3 than by PF-06873600 | IC50 ([3]; Homo sapiens): 2450 nM | Tmax [4]: 3.1 h | AUC(0-inf) [4]: 1870 ng·h/mL | Cmax ([4]; Cmax): 483 ng/mL | Tmax ([4]; iv, 5 mg/kg): 0.0833 h | half-life ([4]; iv, 5 mg/kg): 1.15 h | AUC(0-inf) ([4]; iv, 5 mg/kg): 3700 ng·h/mL | Cmax ([4]; iv, 5 mg/kg, Cmax): 5080 ng/mL | Cmax ([4]; po, 5 mg/kg): 178 ng/mL | Tmax ([4]; po, 5 mg/kg): 0.5 h | half-life ([4]; po, 5 mg/kg): 3.1 h | AUC(0-inf) ([4]; po, 5 mg/kg): 1480 ng·h/mL | tumor growth inhibition (TGI) ([5]; IV 10 mg/kg twice weekly, 14 days, vs control): 60% | tumor growth inhibition (TGI) ([5]; PO 10 mg/kg once daily, end of two weeks): 54%
